Assay results as given in patent publication US12274761B2, “Compositions and methods to detect GLUA1 in brain and to identify the presence of GLUA1-mediated PTSD” (Neurovation Labs, Inc., priority 2016, dated 2025).
Entries after “also recorded” stand apart in the source; their conditions may differ.

Columns and labels:
[1] = system: Stress-Enhanced Fear Learning (SEFL); assay: Stress-Enhanced Fear Learning (SEFL), a rodent model of PTSD: freezing in Context B; type: in vivo, rats
Source text: FIG. 1A illustrates an experimental design for Stress-Enhanced Fear Learning (SEFL), a rodent model of PTSD. FIG. 2A illustrates an abbreviated SEFL experimental design. […] FIG. 3A illustrates a SEFL experimental design. […] FIG. 2C depicts representative Western blot images of GluA1 and GAPDH from the BLA of stressed/MSO and stressed/ASO rats. FIG. 2D depicts mean GluA1: GAPDH optical density ratios (±SEM) from the BLA of stressed/MSO and stressed/ASO rats. […] FIG. 2E depicts mean (±SEM) percent freezing in Context B on Day 3. […] FIG. 3C depicts mean freezing (±SEM) in Context B on Day 3.

[2] = system: GluN1 subunit of the N-methyl-D-aspartate receptor (NMDAR); assay: Western blot of GluN1 protein in the BLA after SEFL trauma; type: in vivo; conditions: measured three weeks after the trauma; stressed and unstressed rats
Experimental: (§1) FIGS. 1B-D depict representative Western blot images and graphs of relative optical density ratios (±standard error of the mean (SEM)) of GluA1, GluA2, and GluN1, respectively, and a glyceraldehyde 3-phosphate dehydrogenase (GAPDH) control. […] Glutamate receptor protein changes were measured three weeks after the initial trauma via Western blotting. While the GluA2 subunit of the AMPAR and the GluN1 subunit of the N-methyl-D-aspartate receptor (NMDAR) remained unchanged after trauma, GluA1 increased substantially.
(§2) FIG. 1A illustrates an experimental design using SEFL (7, 8). Protein levels were measured using Western blot, an analytical technique to detect specific proteins in tissue samples.
FIG. 1D depicts representative Western blot images of GluN1 and GAPDH from the BLA of stressed and unstressed rats, measured three weeks after the trauma.

[3] = system: GluA1 protein in the basolateral amygdala (BLA); assay: Western blot of GluA1 protein in the BLA after SEFL trauma; type: in vivo; conditions: metyrapone given before the trauma, measured three weeks after the trauma, stressed rats
Experimental: FIG. 1A illustrates an experimental design for Stress-Enhanced Fear Learning (SEFL), a rodent model of PTSD.
as §1, §2
FIG. 1B depicts representative Western blot images of GluA1 and a control, GAPDH, from the BLA of stressed and unstressed rats, measured three weeks after the trauma.
Because GluA1 increases are observed weeks after the trauma, post-trauma GluA1 ASO infusions directly into the BLA prevented sensitized fear responses usually observed in SEFL (FIGS. 2A-E) (5). […] FIG. 2C depicts representative Western blot images of GluA1 and GAPDH from the BLA of stressed/MSO and stressed/ASO rats. […]

[4] = system: GluA2 subunit of the AMPAR; assay: Western blot of GluA2 protein in the BLA after SEFL trauma; type: in vivo; conditions: measured three weeks after the trauma; stressed and unstressed rats
Experimental: as §1, §2
FIG. 1C depicts representative Western blot images of GluA2 and GAPDH from the BLA of stressed and unstressed rats, measured three weeks after the trauma.

SMILES	percent freezing in Context B on Day 3 (sensitized fear, SEFL) ([1]; intra-BLA infusion after the 15-shock stressor (post-trauma), compared with stressed controls, hydrobromide)	GluN1: GAPDH optical density ratios in the BLA (GluN1 levels) [2]	GluA1: GAPDH optical density ratios in the BLA [3]	GluA1: GAPDH optical density ratios in the BLA ([3]; listed as metyrapone)	SEFL (stress-enhanced fear learning) ([1]; given before the trauma)	GluA2: GAPDH optical density ratios in the BLA (GluA2 levels) [4]
Br.C[N+](C)(C)CCCCCNCC12CC3CC(CC(C3)C1)C2.[Br-] [IEM-1460, N,N,H,-Trimethyl-5-[(tricyclo[3.3.1.13,7]dec-1-ylmethyl)amino]-1-pentanaminiumbromide hydrobromide]	significantly reduces freezing in Context B; also recorded: attenuate SEFL	–	–	–	–	–
CC(C)(C(=O)c1cccnc1)c1cccnc1 [Metyrapone]	–	Neither stress nor metyrapone had an effect on GluN1 levels	prevented GluA1 increases and conferred levels to that of unstressed controls	GluA1 protein levels in the BLA were significantly higher in stressed rats than in unstressed rats and metyrapone-treated rats	effectively preventing SEFL	Neither stress nor metyrapone had an effect on GluA2 levels
